Test results published in patent US20050080113A1, “Medicinal compositions” (priority 2001, published 2005).

Row | melting point | Compound
1 | 123 to 125 °C | CCc1nc(-c2cccc(C)c2)c(-c2ccnc(NC(=O)C3CCCC3)c2)s1 [H 29-1, N-[4 [2 ethyl-4 (3-methylphenyl)-1,3 thiazol-5 yl]-2-pyridyl]cyclopentanecarboxamide]
2 | 112 to 115 °C | CC(=O)Nc1cc(-c2sc(C)nc2-c2cccc(Cl)c2)ccn1 [H 30-1, N-[4-[4-(3-chlorophenyl)-2-methyl-1,3-thiazol-5-yl]-2-pyridyl]acetamide]
3 | 144 to 145 °C | CCCc1nc(-c2cccc(Cl)c2)c(-c2ccnc(NC(C)=O)c2)s1 [H 30-3, N-[4-[4-(3-chlorophenyl)-2-propyl-1,3-thiazol-5-yl]-2-pyridyl]acetamide]
4 | 154 to 155 °C | CCc1nc(-c2cccs2)c(-c2ccnc(NC(C)=O)c2)s1 [H 30-4, N-[4 [2 ethyl-4 (2-thienyl)-1,3 thiazol-5 yl]-2 pyridyl]acetamide]
5 | 207 to 208 °C | CSc1ccc(-c2nc(-c3cccc(Cl)c3)c(-c3ccnc(NC(C)=O)c3)s2)cc1 [H 30-5, N-[4 [4 (3 chlorophenyl)-2 [4 (methylthio)phenyl]-1,3 thiazol-5 yl]-2-pyridyl]acetamide]
6 | 134 to 135 °C | CCC(=O)Nc1cc(-c2sc(C)nc2-c2cccc(Cl)c2)ccn1 [H 30-7, N-[4-[4-(3-chlorophenyl)-2-methyl-1,3-thiazol-5-yl]-2-pyridyl]propionamide]
7 | 132 to 133 °C | CCC(=O)Nc1cc(-c2sc(CC)nc2-c2cccc(Cl)c2)ccn1 [H 30-8, N-[4-[4-(3-chlorophenyl)-2-ethyl-1,3-thiazol-5-yl]-2-pyridyl]propionamide]
8 | 103 to 104 °C | CCCc1nc(-c2cccc(Cl)c2)c(-c2ccnc(NC(=O)CC)c2)s1 [H 30-9, N-[4-[4-(3-chlorophenyl)-2-propyl-1,3-thiazol-5-yl]-2-pyridyl]propionamide]
9 | 187 to 188 °C | CCC(=O)Nc1cc(-c2sc(CC)nc2-c2cccs2)ccn1 [H 30-10, N-[4 [2 ethyl-4 (2-thienyl)-1,3 thiazol-5 yl]-2 pyridyl]propionamide]
10 | 187 to 188 °C | CCC(=O)Nc1cc(-c2sc(-c3ccc(SC)cc3)nc2-c2cccc(Cl)c2)ccn1 [H 30-11, N-[4 [4 (3 chlorophenyl)-2 [4 (methylthio)phenyl]-1,3 thiazol-5 yl]-2-pyridyl]propionamide]
11 | 119 to 120 °C | CSc1ccc(-c2nc(-c3cccc(Cl)c3)c(-c3ccnc(NC(=O)C(C)(C)C)c3)s2)cc1 [H 30-12, N-[4 [4 (3 chlorophenyl)-2 [4 (methylthio)phenyl]-1,3 thiazol-5 yl]-2-pyridyl]pivalamide]
12 | 67 to 69 °C | CCc1nc(-c2cccc(C)c2)c(-c2ccnc(NCC3CCCC3)c2)s1 [H 32, N-(cyclopentylmethyl)-4 [2-ethyl-4 (3 methylphenyl)-1,3 thiazol-5 yl]-2 pyridylamine]
13 | 188 to 189 °C | Cc1cccc(-c2nc(N)sc2-c2ccnc(N3CCOCC3)c2)c1 [H 34-1, [4 (3 methylphenyl)-5 (2-morpholino-4 pyridyl)-1,3 thiazol-2 yl]amine]
14 | 169 to 170 °C | Cc1cccc(-c2nc(N)sc2-c2ccnc(NC3CCCC3)c2)c1 [H 34-3, [5 (2 cyclopentylamino-4-pyridyl)-4 (3 methylphenyl)-1,3 thiazol-2 yl]amine]
15 | 206 to 208 °C | Nc1nc(-c2cccc(Cl)c2)c(-c2ccnc(N3CCCCC3)c2)s1 [H 35-1, [4 (3 chlorophenyl)-5 (2-piperidino-4 pyridyl)-1,3 thiazol-2 yl]amine]
16 | 155 to 157 °C | Cc1cccc(-c2nc(-c3ccc(S(C)(=O)=O)cc3)sc2N2C=CC=CC2N2CCCCC2)c1 (centres unmarked) [H 35-2, 4 (3 methylphenyl)-2 (4-methylsulfonylphenyl)-5 (2 piperidino-1 pyridyl)-1,3 thiazole]
17 | 194 to 195 °C | Nc1nc(-c2ccc(F)cc2)c(-c2ccnc(NC3CCCCC3)c2)s1 [H 36-1, [5 (2 cyclohexylamino-4-pyridyl)-4 (4 fluorophenyl)-1,3 thiazol-2 yl]amine]
18 | 211 to 212 °C | CNc1nc(-c2cccc(C)c2)c(-c2ccnc(NC3CCCCC3)c2)s1 [H 36-2, N-methyl-[5 (2-cyclohexylamino-4 pyridyl)-4 (3 methylphenyl)-1,3 thiazol-2-yl]amine]
19 | 170 to 172 °C | CNc1nc(-c2cccc(C)c2)c(-c2ccnc(NC3CCCC3)c2)s1 [H 36-3, N-methyl-[5 (2-cyclopentylamino-4 pyridyl)-4 (3 methylphenyl)-1,3 thiazol-2-yl]amine]
20 | 110 to 112 °C | CCc1nc(-c2cccc(C)c2)c(-c2ccnc(NC3CCCCC3)c2)s1 [H 36-4, N-cyclohexyl-4-[2-ethyl-4-(3-methylphenyl)-1,3-thiazol-5-yl]-2-pyridylamine]
21 | 197 to 199 °C | Cc1cccc(-c2nc(-c3ccc(S(C)(=O)=O)cc3)sc2-c2ccnc(NC3CCCCC3)c2)c1 [H 36-5, N-cyclohexyl-4-[4-(3-methylphenyl)-2-(4-methylsulfonylphenyl)-1,3-thiazol-5-yl]-2-pyridylamine]

Row | melting point | Compound
22 | 154 to 156 °C | Cc1cccc(-c2nc(-c3ccc(S(C)(=O)=O)cc3)sc2-c2ccnc(NC3CCCC3)c2)c1 [H 36-7, N-cyclopentyl-4-[4-(3-methylphenyl)-2-(4-methylsulfonylphenyl)-1,3-thiazol-5-yl]-2-pyridylamine]
23 | 200 to 202 °C | Cc1cccc(-c2nc(-c3ccc(S(C)(=O)=O)cc3)sc2-c2ccnc(N3CCOCC3)c2)c1 [H 36-8, 4 (3 methylphenyl)-2 (4-methylsulfonylphenyl)-5 (2 morpholino-4 pyridyl)-1,3 thiazole]
24 | 69 to 71 °C | CCc1nc(-c2cccc(C)c2)c(-c2ccnc(N3CCOCC3)c2)s1 [H 36-9, 2 ethyl-4 (3-methylphenyl)-5 (2 morpholino-4 pyridyl)-1,3 thiazole]
25 | 110 to 111 °C | CCc1nc(-c2cccc(Cl)c2)c(-c2ccnc(NC3CCCC3)c2)s1 [H 36-11, 4-[4-(3-chlorophenyl)-2-ethyl-1,3-thiazol-5-yl]-N-cyclopentyl-2-pyridylamine]
26 | 173 to 174 °C | Cc1cccc(-c2nc(-c3ccc(S(C)(=O)=O)cc3)sc2-c2ccnc(N(C)C3CCCCC3)c2)c1 [H 37-2, N-cyclohexyl-N-methyl-4-[4 (3 methylphenyl)-2 (4 methylsulfonylphenyl)-1,3 thiazol-5-yl]-2 pyridylamine]
27 | 157 to 159 °C | Cc1cccc(-c2nc(-c3ccc(S(C)(=O)=O)cc3)sc2-c2ccnc(NCC3CCCCC3)c2)c1 [H 37-3, N-cyclohexylmethyl-4 [4-(3 methylphenyl)-2 (4 methylsulfonylphenyl)-1,3 thiazol-5-yl]-2 pyridylamine]
28 | 199 to 201 °C | Cc1cccc(-c2nc(-c3ccc(S(C)(=O)=O)cc3)sc2-c2ccnc(N3CCCC3)c2)c1 [H 37-4, 4 (3 methylphenyl)-2 (4-methylsulfonylphenyl)-5 [2 (1 pyrrolidinyl)-4 pyridyl]-1,3-thiazole]
29 | 153 to 154 °C | Cc1cccc(-c2nc(-c3ccc(S(C)(=O)=O)cc3)sc2-c2ccnc(N3CCN(C)CC3)c2)c1 [H 37-5, 4 (3 methylphenyl)-5 [2-(4 methyl-1 piperazinyl)-4 pyridyl]-2 (4-methylsulfonylphenyl)-1,3 thiazole]
30 | 262 to 264 °C | COc1ccc(-c2nc(NC(C)=O)sc2-c2ccnc(NC(C)=O)c2)cc1 [H 38, N-[5 (2 acetylamino-4 pyridyl)-4 (4 methoxyphenyl)-1,3-thiazol-2 yl]acetamide]
31 | 230 to 231 °C | CC(=O)Nc1nc(-c2cccc(C)c2)c(-c2ccnc(C)c2)s1 [H 39, N-[4-(3-methylphenyl)-5-(2-methyl-4-pyridyl)-1,3-thiazol-2-yl]acetamide]
32 | 236 to 237 °C | CC(=O)Nc1nc(-c2cc(C)cc(C)c2)c(-c2ccnc(C)c2)s1 [H 40-1, N-[4 (3,5 dimethylphenyl)-5 (2 methyl-4 pyridyl)-1,3 thiazol-2 yl]acetamide]
33 | 185 to 187 °C | CC(=O)Nc1nc(-c2cccc(C)c2)c(-c2cc(C)nc(C)c2)s1 [H 40-2, N-[5 (2,6 dimethyl-4-pyridyl)-4 (3 methylphenyl)-1,3 thiazol-2 yl]acetamide]
34 | 266 to 267 °C | CC(=O)Nc1nc(-c2cc(C)cc(C)c2)c(-c2cc(C)nc(C)c2)s1 [H 40-3, N-[4 (3,5 dimethylphenyl)-5 (2,6 dimethyl-4 pyridyl)-1,3 thiazol-2 yl]acetamide]
35 | 175 to 178 °C | Cc1cccc(-c2nc(NC(=O)c3cccnc3)sc2-c2ccnc(C)c2)c1 [H 41, N-[4 (3 methylphenyl)-5 (2-methyl-4 pyridyl)-1,3 thiazol-2 yl]nicotinamide]
36 | 203 to 206 °C | Cc1cc(C)cc(-c2nc(NC(=O)c3cccnc3)sc2-c2ccnc(C)c2)c1 [H 42-1, N-[4-(3,5-dimethylphenyl)-5-(2-methyl-4-pyridyl)-1,3-thiazol-2-yl]nicotinamide]
37 | 267 to 268 °C | Cc1cc(C)cc(-c2nc(NC(=O)c3cccnc3)sc2-c2cc(C)nc(C)c2)c1 [H 42-2, N-[4 (3,5 dimethylphenyl)-5 (2,6 dimethyl-4 pyridyl)-1,3 thiazol-2 yl]nicotinamide]
38 | 201 to 203 °C | Cc1cccc(-c2nc(NC(=O)c3cccnc3)sc2-c2ccnc(NC3CCCCC3)c2)c1 [H 42-3, N-[5 (2 cyclohexylamino-4-pyridyl)-4 (3 methylphenyl)-1,3 thiazol-2 yl]nicotinamide]
39 | 215 to 216 °C | Cc1cccc(-c2nc(NC(=O)c3cccnc3)sc2-c2ccnc(NC3CCCC3)c2)c1 [H 42-4, N-[5 (2 cyclopentylamino-4 pyridyl)-4 (3 methylphenyl)-1,3 thiazol-2 yl]nicotinamide]
40 | 136 to 138 °C | O=C(Nc1nc(-c2ccc(F)cc2)c(-c2ccnc(NC3CCCCC3)c2)s1)c1cccnc1 [H 42-5, N-[5 (2 cyclohexylamino-4-pyridyl)-4 (4 fluorophenyl)-1,3 thiazol-2 yl]nicotinamide]
41 | 229 to 231 °C | Cc1cccc(-c2nc(NC(=O)c3cccnc3)sc2-c2ccnc(F)c2)c1 [H 42-6, N-[5 (2 fluoro-4 pyridyl)-4 (3 methylphenyl)-1,3 thiazol-2 yl]nicotinamide]
